pIC50: −log10 of the molar value. Where two headings read alike, the source gives them in different places.
Assays:
[1] = target: T1, recombinant SjTGR (Schistosoma japonicum, UniProt B5THG7); assay: Inhibition of TrxR activity of recombinant SjTGR (DTNB assay); format: biochemical; conditions: 50 nM SjTGR, 1 mM NADPH, 15 min preincubation, DTNB reduction; for pIC50: read-out: IC50 of SjTGR
T1 sequence (B5THG7 1-596): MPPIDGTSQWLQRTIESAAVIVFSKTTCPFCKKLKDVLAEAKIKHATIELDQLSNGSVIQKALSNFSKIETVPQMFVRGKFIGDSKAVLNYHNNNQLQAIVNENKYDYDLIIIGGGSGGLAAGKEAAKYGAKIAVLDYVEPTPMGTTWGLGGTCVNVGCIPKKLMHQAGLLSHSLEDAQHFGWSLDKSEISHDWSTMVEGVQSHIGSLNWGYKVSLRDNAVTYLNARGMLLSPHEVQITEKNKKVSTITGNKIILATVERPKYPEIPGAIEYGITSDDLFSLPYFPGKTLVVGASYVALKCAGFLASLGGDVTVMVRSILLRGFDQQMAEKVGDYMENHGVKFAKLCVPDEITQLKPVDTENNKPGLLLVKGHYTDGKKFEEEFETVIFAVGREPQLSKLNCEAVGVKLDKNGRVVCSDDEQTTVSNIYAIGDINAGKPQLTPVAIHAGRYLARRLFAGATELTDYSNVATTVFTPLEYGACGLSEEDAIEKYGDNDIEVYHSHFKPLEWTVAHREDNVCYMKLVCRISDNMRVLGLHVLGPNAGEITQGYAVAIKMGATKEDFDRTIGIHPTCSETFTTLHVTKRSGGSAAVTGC
Description: The purified recombinant SjTGR proteins were produced according to the method described by Song et al.. The inhibition of TrxR activity by the recombinant SjTGR was performed as reported by Rai et al.. Briefly, 50 nM SjTGR and 1 mM NADPH were incubated with different concentrations of oxadiazole-2-oxides (2, 4, 6, 10, 20 μM) for 15 min at room temperature. Then, potassium phosphate buffer (pH 7.4) containing 10 mM EDTA, 100 μM NADPH, and 3 mM DTNB was added to start the reaction. The increase of absorbance at 412 nm was monitored during the first 2 min. All assays were done in triplicate.
50 nM SjTGR and 1 mM NADPH were incubated with different concentrations of oxadiazole-2-oxides (2, 4, 6, 10, 20 μM) for 15 min at room temperature. Then, potassium phosphate buffer (pH 7.4) containing 10 mM EDTA, 100 μM NADPH, 3 mM DTNB was added to start the reaction. The increase in absorbance at 412 nm was monitored during the first 2 min. All assays were done in triplicate. Results shown are the mean ± SD (n = 3)

[2] = system: juvenile S. japonicum; assay: microbe, parasite or virus in culture; format: cell-based; conditions: juvenile worms; for killing at 2 µM / killing at 5 µM / killing at 50 µM: Schistosoma japonicum; for Killing activity 24hr / Killing activity 48hr / Killing activity 72hr: 10 μM
Description: Infected Oncomelania hupensis, provided by the Department of Snail Biology, Jiangsu Institute of Parasitic Diseases, were incubated at 25–28 °C, under illumination, for 2 h to hatch S. japonicum cercariae. The cercariae were collected from the water surface with clean cover glass and placed into a centrifuge tube using pre cooled RPMI 1640. Centrifugation was performed for 1 min at 1500 rpm, and then the steps above were repeated. After centrifugation, the supernatant solution was removed. The cercariae at the bottom were washed twice and resuspended with RPMI 1640. Approximately 20–30 cercariae (1 mL of the resuspension medium) were added to one well in a 24-well culture plate. They were incubated overnight at 37 °C with 5 % CO2. The survival rates and number of tails shed were observed under an inverted microscope. Cercariae that had shed their tails were used as juvenile S. japonicum.
20–30 juvenile worms were transferred into each well of a 24-well culture plate, containing 2 mL RPMI 1640 medium, 20 mM HEPES, 100 IU/mL penicillin, […] streptomycin and 10 % fetal bovine serum. Then, oxadiazole-2-oxides (2, 5, 10, and 50 μM), diluted with the RPMI 1640 medium, were added to their allocated wells. The worms in the negative control wells were treated with equal volumes of RPMI 1640 or DMSO and worms treated with AS were observed as positive controls. The juvenile worms’ survival rates were observed under an inverted phase contrast microscope (Leica, Wetzlar, Germany) at 24, 48 and 72 h. Parasite death was defined as an unclear internal structure of the juvenile worms, with incomplete tegument and contents overflowing radially, or unclear internal structure with complete tegument, but having no motor activity during 1 min of continuous observation. All assays were repeated three times.
^b Data collected by visual examination of worm movement and shape; % D = The number of worms dead / The total number of worms observed, and worms dead judged by unclear internal structure of juvenile worms with uncompleted tegument, and contents overflowing radially, or unclear internal structure with complete tegument, but having no motor activity during 1 min of continuous observation. The data presented are the average of three independent experiments.

[3] = system: adult S. japonicum; assay: microbe, parasite or virus in culture; format: cell-based; conditions: adult worms
Text: ICR mice (20–22 g), were obtained from the Shanghai Sub-Center of Experimental Animals, Chinese Academy of Sciences. They were maintained at the Department of Experimental Animals, Jiangsu Institute of Parasitic Diseases. To infect each mouse, its abdominal skin was exposed to 50 S. japonica cercariae. All of the mice were executed to collect S. japonica adult worms, through portal vein perfusion, 35 days post-infection. The adult S. japonica collected were washed with RPMI 1640 medium and then kept in RPMI 1640 medium (pH 7.5) with HEPES 20 mM, penicillin (100 IU/mL), streptomycin ([…]) and 10 % fetal bovine serum. Then, two pairs of adult worms were transferred into each well of a 24-well culture plate, with 2 mL of the same medium. The worms were cultured at 37 °C in a humid atmosphere with 5 % CO2.
Adult worms were cultured in a 24-well culture plate for 30–60 min at 37 °C, in a humid atmosphere with 5 % CO2. Then, oxadiazole-2-oxides at different concentrations (10, 25, 50, 100 μM) were added. Equal volumes of RPMI 1640 or DMSO were applied as negative controls, while PZQ was applied as a positive control. The adult worm mobility and parasite survival rates were monitored using an inverted phase contrast microscope, at 24, 48 and 72 h. Parasite death was defined as there being no motor activity during 2 min of continuous observation, and morphological and tegumental alterations. All assays were repeated three times.
^b Data collected by visual examination of worm movement and shape; n.e. […] The data presented are the average of three independent experiments.

[4] = 24 h, read-out: Killing activity 24hr
[5] = 48 h, read-out: Killing activity 48hr
[6] = 72 h, read-out: Killing activity 72hr
[7] = Schistosoma japonicum, 50 μM, 72 h, read-out: Killing activity 72hr
[8] = Schistosoma japonicum, 100 μM, 72 h, read-out: Killing activity 72hr

| Structure (SMILES) | IC50 of SjTGR [1] | pIC50 [1] | killing at 2 µM [2, 4] [%] | killing at 2 µM [2, 5] [%] | killing at 2 µM [2, 6] [%] | killing at 5 µM [2, 4] [%] | killing at 5 µM [2, 5] [%] | killing at 5 µM [2, 6] [%] | killing at 50 µM [2, 4] [%] | killing at 50 µM [2, 5] [%] | killing at 50 µM [2, 6] [%] | Killing activity 24hr ([2]; 24 h) [%D] | Killing activity 48hr ([2]; 48 h) [%D] | Killing activity 72hr ([2]; 72 h) [%D] | killing at 50 µM [3, 7] [%] | killing at 100 µM [3, 8] [%] | Killing activity 24hr ([3]; 10 μM, 24 h) | Killing activity 48hr ([3]; 10 μM, 48 h) | Killing activity 72hr ([3]; 10 μM, 72 h) | Killing activity 24hr ([3]; 25 μM, 24 h) | also measured |
| --- | --- | --- | --- | --- | --- | --- | --- | --- | --- | --- | --- | --- | --- | --- | --- | --- | --- | --- | --- | --- | --- |
| N#Cc1c(-c2ccc(COc3ccc4ccccc4c3C=O)cc2)no[n+]1[O-] [Compound 27] | did not inhibit | < 4.70 | 9.1 | 9.1 | 10.6 | 14.9 | 25.7 | 27 | 40 | 44.4 | 46.7 | 15.6 | 24.4 | 30.0 | 87.5 | 77.8 | n.e. | n.e. | 62.5%D | sluggish | killing at 25 µM ([3]; Schistosoma japonicum, 25 μM, 72 h, read-out: Killing activity 72hr): 75%; killing at 100 µM ([3]; Schistosoma japonicum, 100 μM, 24 h, read-out: Killing activity 24hr): 22.2%; killing at 100 µM ([3]; Schistosoma japonicum, 100 μM, 48 h, read-out: Killing activity 48hr): 33.3%; Killing activity 48hr ([3]; 25 μM, 48 h): sluggish; Killing activity 24hr ([3]; 50 μM, 24 h): sluggish; Killing activity 48hr ([3]; 50 μM, 48 h): sluggish |
| N#Cc1c(-c2ccc(COc3cc(=O)oc4ccccc34)cc2)no[n+]1[O-] [Compound 29] | did not inhibit | < 4.70 | 30 | 30 | 30 | 30 | 32.5 | 40 | 42.3 | 51.9 | 75 | 30.2 | 31.7 | 65.1 | 16.7 | 66.7 | n.e. | n.e. | n.e. | n.e. | Killing activity 48hr ([3]; 25 μM, 48 h): n.e.; Killing activity 72hr ([3]; 25 μM, 72 h): sluggish; Killing activity 24hr ([3]; 50 μM, 24 h): n.e.; Killing activity 48hr ([3]; 50 μM, 48 h): sluggish; Killing activity 24hr ([3]; 100 μM, 24 h): n.e.; Mortality of adult worms ([3]; 100 μM, 24 h): did not cause death; Killing activity 48hr ([3]; 100 μM, 48 h): sluggish |

— PMC4721062, “Oxadiazole-2-oxides may have other functional targets, in addition to SjTGR, through which they cause mortality in Schistosoma japonicum” (Parasites & Vectors, 2016)
